Measurements from patent US20010014357A1, “Citrus peel extract as inhibitor of ACYL coa-cholesterol-o-acyltransferase, inhibitor of macrophage-lipid complex accumulation on the arterial wall and preventive or treating agent for hepatic diseases” (priority 1997, published 2001).

What was measured:
[1] = Blood total cholesterol and triglyceride levels in cholesterol-fed rabbits; format: in vivo, New Zealand White rabbits; settings: 1% cholesterol diet plus 0.1% flavonoid or 1 mg/kg Lovastatin, 6 weeks
Experimental: RC4 diet comprises 7.6% moisture, 22.8% crude protein, 2.8% crude fat, 8.8% crude ash, 14.4% crude cellulose and 43.6% soluble nitrogen-free substances. The rabbits were bred for 6 weeks while being allowed free access to the diets and water. Further, blood samples were taken from the rabbits and total cholesterol and triglyceride levels were determined in accordance with the same procedure in Example 5.

[2] = test system: hepatic cells (fatty liver); test: Histopathological observation of the livers of cholesterol-fed rabbits; format: in vivo, New Zealand White rabbits; settings: 1% cholesterol diet plus 0.1% flavonoid or 1 mg/kg Lovastatin, eight weeks, H&E stain
Experimental: The same procedure as in (Step 1) was repeated except that 40 three-month-old New Zealand White rabbits (Yeonam Horticulture and Animal Husbandry College, Korea) each weighing about 2.5 to 2.6 kg were used in place of the rats, and the rabbits were fed for eight weeks with four different diets, i.e., RC4 diet containing 1% cholesterol (Control group); 1% cholesterol plus 1 mg/kg Lovastatin® (Comparative group); 1% cholesterol plus 0.1% hesperidin; and 1% cholesterol plus 0.1% naringin, respectively.
Thereafter, the livers were separated from the rabbits and the histopathological observations were carried out as follows.
The rabbits were anesthetized with an intramuscular injection of ketamine (75 mg/kg) and subjected to an abdominal incision. […] The fixed liver was washed sufficiently with water, dehydrated stepwise with 70%, 80%, 90% and 100% ethanol and, then, embedded in paraffin. The embedded liver was sectioned in 4 μm thickness with a microtome and stained with hematoxylin and eosin. The stained liver specimen was made transparent with xylene, mounted with permount, and then observed under a microscope to confirm the presence of lesions.

[3] = test system: macrophage-lipid complex accumulated on the arterial endothelium; test: Analysis for fatty streak (macrophage-lipid complex) in the main artery of cholesterol-fed rabbits; format: in vivo, New Zealand White rabbits; settings: 1% cholesterol diet plus 0.1% flavonoid or 1 mg/kg Lovastatin; for area of macrophage-lipid complex accumulated on the arterial endothelium compared to the control group / M-L (macrophage-lipid) complex area: 6 weeks; for M-L (macrophage-lipid) complex area: Oil Red O stained area as proportion of total arterial area, control group 35; for layer of macrophage-lipid complex observed on the arterial endothelium (FIGS. 1B-1D): control shows a thick layer
Source text: RC4 diet comprises 7.6% moisture, 22.8% crude protein, 2.8% crude fat, 8.8% crude ash, 14.4% crude cellulose and 43.6% soluble nitrogen-free substances. The rabbits were bred for 6 weeks while being allowed free access to the diets and water. The rabbits bred in (Step 1) were sacrificed and their chest were incised. The main artery was cut out therefrom in a length of about 5 cm downward from the site 1 cm above the aortic valve and the fat surrounding the main artery was removed. The main artery was incised in the middle along the longitudinal axis and pinned to a dish. The moist artery was photographed and, then, staining of fatty streak was carried out in accordance with the method of […]., et al.(J. Lab. Clin. […] A part of the incised main artery was washed three times by 2 min. with anhydrous propylene glycol and stained for 30 min. with a saturated solution of Oil Red O (ORO, Sigma Co.) dissolved in propylene glycol. Thereafter, the artery was washed twice by 3 min. with 85% propylene glycol to remove remaining staining solution and, then washed with physical saline. The artery was photographed and the photograph was traced. The area of stained region (fatty streak region) was determined with an image analyzer (LEICA, Q-600, Germany) and its proportion(%) to the total arterial area was calculated. On the other hand, the other part of the main artery was stained in accordance with hematoxylin-eosin (H&E) and Masson's trichrome staining methods and observed under a microscope to confirm whether the macrophage-lipid complexes were accumulated in the intima, internus, elastic lamina and media.

[4] = Serum GOT and GPT levels in rats on a high-cholesterol diet; format: in vivo, Sprague-Dawley rats; settings: 1% cholesterol diet plus 0.02% naringin or citrus peel extract (0.04% hesperidin equivalent), six weeks
Source text: 30 four-week-old Sprague-Dawley rats (Taihan laboratory animal center, Korea) each weighing about 90 to 110 g were evenly divided into three dietary groups by a randomized block design. The rats of the three groups were fed with three different high-cholesterol diets, i.e., AIN-76 laboratory animal diet (ICN Biochemicals, Cleveland, Ohio, U.S.A.) containing 1% cholesterol(Control group), 1% cholesterol plus 0.02% naringin, and 1% cholesterol plus citrus peel extract prepared in Example 2(1) in an amount equivalent to 0.04% hesperidin, respectively.
The effect of administering naringin and citrus peel extract to rats on the function of the liver was examined as follows.
Blood samples were taken from the rats of the three dietary groups and serum GOT (glutamate-oxaloacetate transaminase) and GPT (glutamate-pyruvate transaminase) levels were determined in accordance with the method of Reitman and Frankel (Reitman, S. and J. S. Frankel, Am. J. Clin. Pathol., 28, 56 (1956)). GOT and GPT are synthesized in the liver and heart, and released into blood stream upon the damage of these organs. Accordingly, GOT and GPT are representative markers of the liver-function and high serum GOT and GPT levels mean severe damage of the liver.

[5] = Serum GOT, GPT and γGTP levels in men given oral naringin; format: in vivo, human; settings: person, oral 10 mg/kg daily, day 68
Experimental: Naringin was orally administered to a person at a daily dose of 10 mg/kg for 68 days and serum GOT, GPT and γGTP levels were determined just before the administration (day 0), and 45 and 68 days after the administration (day 45 and day 68), respectively. Consequently, serum GOT- levels at day 45 and day 68 decreased by 17%, respectively, in comparison to that of day 0. Serum GPT levels at day 45 and day 68 decreased by 15% and 19%, respectively, in comparison to that of day 0. Further, serum γGTP levels at day 45 and day 68 decreased by 25% and 51%, respectively, in comparison to that of day 0.
On the other hand, naringin was orally administered to a person, who had drunk alcoholic beverages habitually in an amount of 100 cc per day, at a daily dose of 6 mg/kg for 30 days and serum γGTP level was determined just before the administration (day 0) and 30 days after the administration (day 30). Consequently, initial serum γGTP level at day 0 was 129 IU/l, while that of day 30 decreased to 69 IU/l which is within the normal range.

SMILES | Total cholesterol [1] [mg/dL] | Triglyceride [1] [mg/dL] | microscopic features of the hepatic cells (FIGS. 2B-2D) [2] | area of macrophage-lipid complex accumulated on the arterial endothelium compared to the control group [3] | M-L (macrophage-lipid) complex area [3] [%] | layer of macrophage-lipid complex observed on the arterial endothelium (FIGS. 1B-1D) [3] | serum GOT level, lower than that of the control group [4] | serum GPT level, lower than that of the control group [4] [%] | decrease of serum γGTP level in comparison to day 0 [5] [%]
COc1ccc([C@@H]2CC(=O)c3c(O)cc(O[C@@H]4O[C@H](CO[C@@H]5O[C@@H](C)[C@H](O)[C@@H](O)[C@H]5O)[C@@H](O)[C@H](O)[C@H]4O)cc3O2)cc1O [hesperidin] | 1130 | 40 | normal and the deposition of fat is not observed | decreased significantly | 13.5 | no or very thin layers | – | – | –
COc1ccc([C@@H]2CC(=O)c3c(O)cc(O)cc3O2)cc1O [hesperetin] | 1150 | 41 | – | decreased significantly | 13 | – | – | – | –
O=C1C[C@@H](c2ccc(O)cc2)Oc2cc(O)cc(O)c21 [naringenin] | – | – | – | decreased significantly | – | – | – | – | –
C[C@@H]1O[C@@H](O[C@H]2[C@H](Oc3cc(O)c4c(c3)O[C@H](c3ccc(O)cc3)CC4=O)O[C@H](CO)[C@@H](O)[C@@H]2O)[C@H](O)[C@H](O)[C@H]1O [naringin] | – | – | normal and the deposition of fat is not observed | decreased significantly | – | no or very thin layers | about 30% | ~10 | 51
CC[C@H](C)C(=O)O[C@H]1C[C@@H](C)C=C2C=C[C@H](C)[C@H](CC[C@@H]3C[C@@H](O)CC(=O)O3)[C@H]21 [Lovastatin, reference compound] | – | – | irregularly arranged and enlarged and a large amount of fat is deposited therein | decreased significantly | – | no or very thin layers | – | – | –
